Test results from patent US10472352B2, “Rac inhibitors” (Geneyus LLC, priority 2017, dated 2019).
Where two headings read alike, the source gives them in different places.

Tested on: BT474 breast cancer cells
Experiment: BT474 Four (4) Day Cell Viability Assay
Format: cell-based
Settings: Homo sapiens, BT-474, 96 h, BT474, 4 days, read-out: cellular viability; for viability at 7.5 µM: 32661 7.5 μM; for viability at 10 µM: 32661 10 μM
Experimental: BT474 breast cancer cells that are Estrogen Receptor Positive and HER2+ were grown in 5% cFBS. 5,000 cells were seeded into each well of a 96-well plate and treated with escalating doses of lapatinib, fulvestrant, and 32661.

[1] = fulvestrant 0.0 nM, lapatinib 0.0 nM
[2] = fulvestrant 0.0 nM, lapatinib 6.9 nM
[3] = fulvestrant 0.0 nM, lapatinib 20.6 nM
[4] = fulvestrant 0.0 nM, lapatinib 61.7 nM
[5] = fulvestrant 0.0 nM, lapatinib 185.2 nM
[6] = fulvestrant 0.0 nM, lapatinib 555.6 nM
[7] = fulvestrant 0.0 nM, lapatinib 1666.7 nM
[8] = fulvestrant 0.0 nM, lapatinib 3333.0 nM
[9] = fulvestrant 6.9 nM, lapatinib 0.0 nM
[10] = fulvestrant 6.9 nM, lapatinib 6.9 nM
[11] = fulvestrant 6.9 nM, lapatinib 20.6 nM
[12] = fulvestrant 6.9 nM, lapatinib 61.7 nM
[13] = fulvestrant 6.9 nM, lapatinib 185.2 nM
[14] = fulvestrant 6.9 nM, lapatinib 555.6 nM
[15] = fulvestrant 6.9 nM, lapatinib 1666.7 nM
[16] = fulvestrant 6.9 nM, lapatinib 3333.0 nM
[17] = fulvestrant 20.6 nM, lapatinib 0.0 nM
[18] = fulvestrant 20.6 nM, lapatinib 6.9 nM
[19] = fulvestrant 20.6 nM, lapatinib 20.6 nM
[20] = fulvestrant 20.6 nM, lapatinib 61.7 nM
[21] = fulvestrant 20.6 nM, lapatinib 185.2 nM
[22] = fulvestrant 20.6 nM, lapatinib 555.6 nM
[23] = fulvestrant 20.6 nM, lapatinib 1666.7 nM
[24] = fulvestrant 20.6 nM, lapatinib 3333.0 nM
[25] = fulvestrant 61.7 nM, lapatinib 0.0 nM
[26] = fulvestrant 61.7 nM, lapatinib 6.9 nM
[27] = fulvestrant 61.7 nM, lapatinib 20.6 nM
[28] = fulvestrant 61.7 nM, lapatinib 61.7 nM
[29] = fulvestrant 61.7 nM, lapatinib 185.2 nM
[30] = fulvestrant 61.7 nM, lapatinib 555.6 nM
[31] = fulvestrant 61.7 nM, lapatinib 1666.7 nM
[32] = fulvestrant 61.7 nM, lapatinib 3333.0 nM
[33] = fulvestrant 185.2 nM, lapatinib 0.0 nM
[34] = fulvestrant 185.2 nM, lapatinib 6.9 nM
[35] = fulvestrant 185.2 nM, lapatinib 20.6 nM
[36] = fulvestrant 185.2 nM, lapatinib 61.7 nM
[37] = fulvestrant 185.2 nM, lapatinib 185.2 nM
[38] = fulvestrant 185.2 nM, lapatinib 555.6 nM
[39] = fulvestrant 185.2 nM, lapatinib 1666.7 nM
[40] = fulvestrant 185.2 nM, lapatinib 3333.0 nM
[41] = fulvestrant 555.6 nM, lapatinib 0.0 nM
[42] = fulvestrant 555.6 nM, lapatinib 6.9 nM
[43] = fulvestrant 555.6 nM, lapatinib 20.6 nM
[44] = fulvestrant 555.6 nM, lapatinib 61.7 nM
[45] = fulvestrant 555.6 nM, lapatinib 185.2 nM
[46] = fulvestrant 555.6 nM, lapatinib 555.6 nM
[47] = fulvestrant 555.6 nM, lapatinib 1666.7 nM
[48] = fulvestrant 555.6 nM, lapatinib 3333.0 nM
[49] = fulvestrant 1666.7 nM, lapatinib 0.0 nM
[50] = fulvestrant 1666.7 nM, lapatinib 6.9 nM
[51] = fulvestrant 1666.7 nM, lapatinib 20.6 nM
[52] = fulvestrant 1666.7 nM, lapatinib 61.7 nM
[53] = fulvestrant 1666.7 nM, lapatinib 185.2 nM
[54] = fulvestrant 1666.7 nM, lapatinib 555.6 nM
[55] = fulvestrant 1666.7 nM, lapatinib 1666.7 nM
[56] = fulvestrant 1666.7 nM, lapatinib 3333.0 nM
[57] = fulvestrant 3333.0 nM, lapatinib 0.0 nM
[58] = fulvestrant 3333.0 nM, lapatinib 6.9 nM
[59] = fulvestrant 3333.0 nM, lapatinib 20.6 nM
[60] = fulvestrant 3333.0 nM, lapatinib 61.7 nM
[61] = fulvestrant 3333.0 nM, lapatinib 185.2 nM
[62] = fulvestrant 3333.0 nM, lapatinib 555.6 nM
[63] = fulvestrant 3333.0 nM, lapatinib 1666.7 nM
[64] = fulvestrant 3333.0 nM, lapatinib 3333.0 nM

Structure (SMILES): FC(F)(F)c1ccc2c(SCCCCCCn3cnc(CN4CCOCC4)c3)ccnc2c1 [Compound 0032661, 4-[[1-[6-[[7-(trifluoromethyl)-4-quinolyl]sulfanyl]hexyl]imidazol-4-yl]methyl]morpholine]
- viability at 5 µM (32661 5 μM, fulvestrant 3333.0 nM, lapatinib 3333.0 nM): 1%
- viability at 7.5 µM [1]: 84%
- viability at 7.5 µM [2]: 76%
- viability at 7.5 µM [3]: 74%
- viability at 7.5 µM [4]: 65%
- viability at 7.5 µM [5]: 50%
- viability at 7.5 µM [6]: 30%
- viability at 7.5 µM [7]: 14%
- viability at 7.5 µM [8]: 12%
- viability at 7.5 µM [9]: 81%
- viability at 7.5 µM [10]: 72%
- viability at 7.5 µM [11]: 71%
- viability at 7.5 µM [12]: 64%
- viability at 7.5 µM [13]: 52%
- viability at 7.5 µM [14]: 27%
- viability at 7.5 µM [15]: 12%
- viability at 7.5 µM [16]: 9%
- viability at 7.5 µM [17]: 75%
- viability at 7.5 µM [18]: 73%
- viability at 7.5 µM [19]: 67%
- viability at 7.5 µM [20]: 62%
- viability at 7.5 µM [21]: 50%
- viability at 7.5 µM [22]: 23%
- viability at 7.5 µM [23]: 12%
- viability at 7.5 µM [24]: 4%
- viability at 7.5 µM [25]: 76%
- viability at 7.5 µM [26]: 66%
- viability at 7.5 µM [27]: 61%
- viability at 7.5 µM [28]: 58%
- viability at 7.5 µM [29]: 52%
- viability at 7.5 µM [30]: 24%
- viability at 7.5 µM [31]: 12%
- viability at 7.5 µM [32]: 4%
- viability at 7.5 µM [33]: 74%
- viability at 7.5 µM [34]: 64%
- viability at 7.5 µM [35]: 61%
- viability at 7.5 µM [36]: 54%
- viability at 7.5 µM [37]: 48%
- viability at 7.5 µM [38]: 24%
- viability at 7.5 µM [39]: 10%
- viability at 7.5 µM [40]: 5%
- viability at 7.5 µM [41]: 76%
- viability at 7.5 µM [42]: 59%
- viability at 7.5 µM [43]: 52%
- viability at 7.5 µM [44]: 45%
- viability at 7.5 µM [45]: 38%
- viability at 7.5 µM [46]: 19%
- viability at 7.5 µM [47]: 3%
- viability at 7.5 µM [48]: 1%
- viability at 7.5 µM [49]: 69%
- viability at 7.5 µM [50]: 35%
- viability at 7.5 µM [51]: 28%
- viability at 7.5 µM [52]: 25%
- viability at 7.5 µM [53]: 21%
- viability at 7.5 µM [54]: 12%
- viability at 7.5 µM [55]: 2%
- viability at 7.5 µM [56]: 0%
- viability at 7.5 µM [57]: 49%
- viability at 7.5 µM [58]: 16%
- viability at 7.5 µM [59]: 13%
- viability at 7.5 µM [60]: 11%
- viability at 7.5 µM [61]: 7%
- viability at 7.5 µM [62]: 2%
- viability at 7.5 µM [63]: 3%
- viability at 7.5 µM [64]: 1%
- viability at 10 µM [1]: 90%
- viability at 10 µM [2]: 42%
- viability at 10 µM [3]: 38%
- viability at 10 µM [4]: 35%
- viability at 10 µM [5]: 28%
- viability at 10 µM [6]: 28%
- viability at 10 µM [7]: 23%
- viability at 10 µM [8]: 5%
- viability at 10 µM [9]: 90%
- viability at 10 µM [10]: 38%
- viability at 10 µM [11]: 35%
- viability at 10 µM [12]: 33%
- viability at 10 µM [13]: 27%
- viability at 10 µM [14]: 24%
- viability at 10 µM [15]: 20%
- viability at 10 µM [16]: 3%
- viability at 10 µM [17]: 89%
- viability at 10 µM [18]: 36%
- viability at 10 µM [19]: 36%
- viability at 10 µM [20]: 33%
- viability at 10 µM [21]: 28%
- viability at 10 µM [22]: 23%
- viability at 10 µM [23]: 20%
- viability at 10 µM [24]: 3%
- viability at 10 µM [25]: 86%
- viability at 10 µM [26]: 37%
- viability at 10 µM [27]: 35%
- viability at 10 µM [28]: 33%
- viability at 10 µM [29]: 27%
- viability at 10 µM [30]: 23%
- viability at 10 µM [31]: 20%
- viability at 10 µM [32]: 2%
- viability at 10 µM [33]: 86%
- viability at 10 µM [34]: 33%
- viability at 10 µM [35]: 33%
- viability at 10 µM [36]: 31%
- viability at 10 µM [37]: 24%
- viability at 10 µM [38]: 23%
- viability at 10 µM [39]: 18%
- viability at 10 µM [40]: 1%
- viability at 10 µM [41]: 81%
- viability at 10 µM [42]: 31%
- viability at 10 µM [43]: 29%
- viability at 10 µM [44]: 29%
- viability at 10 µM [45]: 24%
- viability at 10 µM [46]: 23%
- viability at 10 µM [47]: 18%
- viability at 10 µM [48]: 1%
- viability at 10 µM [49]: 78%
- viability at 10 µM [50]: 16%
- viability at 10 µM [51]: 16%
- viability at 10 µM [52]: 15%
- viability at 10 µM [53]: 16%
- viability at 10 µM [54]: 15%
- viability at 10 µM [55]: 7%
- viability at 10 µM [56]: 0%
- viability at 10 µM [57]: 55%
- viability at 10 µM [58]: 3%
- viability at 10 µM [59]: 3%
- viability at 10 µM [60]: 6%
- viability at 10 µM [61]: 2%
- viability at 10 µM [62]: 2%
- viability at 10 µM [63]: 1%
- viability at 10 µM [64]: 0%
